From patent publication US20210186838A1, “ACTIVE SUBSTANCE COMBINATIONS OF N-(4-AMINO-2-METHYLQUINOLIN-6-YL)-2-((4-ETHYLPHENOXY)METHYL)BENZAMIDE AND ONE OR MORE COSMETICALLY OR DERMATOLOGICALLY ACCEPTABLE PRESERVATIVES AND/OR PRESERVATIVE AUXILIARIES” (BEIERSDORF AG, priority 2017, published 2021) come the findings set out here.

One series relates to subcutaneous adipocytes. As to the kind of experiment: lipid assay (AdipoRed staining of total lipid). Particulars: for Assay in which the combination showed better activity than the corresponding active substance alone: Lipid: active substance combined with 10 ng/ml N-(4-amino-2-methylquinolin-6-yl)-2-((4-ethylphenoxy)methyl)benzamide, adipocytes, one week, AdipoRed, assay named in cell = better activity. In kind it is cell-based. Here is the method: The lipid assay is performed on subcutaneous adipocytes. Cell culture dishes are inoculated with preadipocytes, which undergo differentiation into adipocytes. This is followed by treatment with the active substance for one week, during which the cells synthesize lipids and store them in vesicles. The total amount of lipid as a function of active substance effects is determined at the end of the culture period. This is done by staining the cell monolayer with the lipophilic fluorescent dye AdipoRed, followed by quantification by fluorescence spectroscopy.

In a further series the test system is human adipocytes. Briefly: LDH (lactate dehydrogenase) cytotoxicity assay. Particulars: for Assay in which the combination showed better activity than the corresponding active substance alone: LDH: active substance combined with 10 ng/ml N-(4-amino-2-methylquinolin-6-yl)-2-((4-ethylphenoxy)methyl)benzamide, LDH in medium supernatant, assay named in cell = better activity (less LDH escape).

For the next series, the system named is dermal fibroblasts. As to the kind of experiment: viability assay (BrdU incorporation, cell division rate). Format: cell-based. Particulars: 24 h; for Assay in which the combination showed better activity than the corresponding active substance alone: BrdU: active substance combined with 10 ng/ml N-(4-amino-2-methylquinolin-6-yl)-2-((4-ethylphenoxy)methyl)benzamide, assay named in cell = better activity. From the text: The cells take up this synthetic nucleic acid, which is detectable by fluorescence detection, and incorporate it into newly synthesized genetic material during cell division. […] This allows conclusions to be drawn about the effect of the individual active substances on cell viability.

Description for human adipocytes: The third assay performed is the LDH (lactate dehydrogenase) cytotoxicity assay. In this assay, the metabolic enzyme LDH is detected in the medium supernatant of the cell monolayer by adding a substrate for the enzyme to the cell culture supernatant. Reaction of the latter produces a color change, which is determined photometrically. The magnitude of the color change correlates here with the amount of LDH in the cell culture supernatant.
For all assays, the active substances were present as 1000× stocks dissolved to 10 mM in DMSO and were diluted 1:1000 in the appropriate cell culture medium for use.

Take `CCCCC(O)CO` (stereo not drawn) [1,2-Hexanediol/Hydiol 6, 1,2-Hexanediol]: the “Assay in which the combination showed better activity than the corresponding active substance alone: Lipid” value (“Assay … Lipid” below) with subcutaneous adipocytes is given as “Lipid”. In addition, the “Assay in which the combination showed better activity than the corresponding active substance alone: LDH” value (shortened to “Assay … LDH”) in the series on human adipocytes is recorded as “LDH”.
Take `OCc1ccccc1` [Benzyl alcohol]: the “Assay … Lipid” value in the series on subcutaneous adipocytes is “Lipid”.
With `OCCCCO` [Butylene glycol/Natan, Butylene glycol], the “Assay in which the combination showed better activity than the corresponding active substance alone: BrdU” value (“Assay … BrdU” for short) in the series with dermal fibroblasts is on record as “BrdU”. For the same molecule, the “Assay … Lipid” value with subcutaneous adipocytes is “Lipid”.
Regarding `CCOC(=O)c1ccc(O)cc1` [Ethylparaben/Konpar A, Ethylparaben], the “Assay … BrdU” value with dermal fibroblasts is given as “BrdU”. In addition, the “Assay … LDH” value in the series with human adipocytes is “LDH”.
Take `CCCCCCCC(=O)OCC(O)CO` (stereo not drawn) [Glyceryl caprylate/emulsifier CY, Glyceryl caprylate]: the “Assay … BrdU” value with dermal fibroblasts is “BrdU”.
For the molecule `CC1(C)C(=O)N(CO)C(=O)N1CO` [Kondant/DMDM hydantoin, DMDM hydantoin], the “Assay … BrdU” value in the series on dermal fibroblasts was “BrdU”. Further, the “Assay … Lipid” value with subcutaneous adipocytes is on record as “Lipid”.
For `Cn1sccc1=O` [Methylisothiazolinone/Konlon 950, Methylisothiazolinone], in that order: “BrdU” and “Lipid”.
For `CC(CO)CO` [Methylpropanediol/Lolo, Methylpropanediol], the “Assay … Lipid” value in the series with subcutaneous adipocytes is “Lipid”.
On to `CCc1ccc(OCc2ccccc2C(=O)Nc2ccc3nc(C)cc(N)c3c2)cc1` [N-(4-Amino-2-methylquinolin-6-yl)-2-((4-ethylphenoxy)methyl)benzamide], for which the “rate of incorporation of BrdU” value in the series with dermal fibroblasts (in combination with a preservative versus the corresponding preservative alone, FIG. 1) is on record as “increase”. The “accumulation of AdipoRed (differentiation performance of the adipocytes)” value with subcutaneous adipocytes (in combination with a preservative versus the corresponding preservative alone, one week treatment, FIG. 2) is listed as “increase”. In addition, the “rate of escape of LDH” value in the series on human adipocytes (in combination with a preservative versus the corresponding preservative alone, human adipocytes, FIG. 3) is “decrease”.
Turning to `Cc1cc(CC(C)CC(C)(C)C)n(O)c(=O)c1.NCCO` (stereo not drawn) [Piroctone olamine/Octupus, Piroctone olamine], the “Assay … BrdU” value with dermal fibroblasts is listed as “BrdU”. Further, in the series on subcutaneous adipocytes, the “Assay … Lipid” value is recorded as “Lipid”.
As to `O=C([O-])c1ccccc1.[Na+]` [Sodium benzoate], the “Assay … Lipid” value in the series with subcutaneous adipocytes is “Lipid”. Moreover, in the series with human adipocytes, the “Assay … LDH” value is “LDH”.
Regarding `O=C([O-])c1ccccc1O.[Na+]` [Sodium salicylate], the “Assay … Lipid” value in the series on subcutaneous adipocytes is given as “Lipid”.
As for `CCCCCCC(O)CO` (stereo not drawn) [octane-1,2-diol], the “Assay … BrdU” value in the series on dermal fibroblasts is recorded as “BrdU”. Further, the “Assay … LDH” value in the series on human adipocytes is reported as “LDH”.
Consider “Phenoxyethanol [Phenoxyethanol/Phenoxetol]”, for which the “Assay … Lipid” value with subcutaneous adipocytes is on record as “Lipid”.
